Values after ≈ are worked out from the molar mass of the structure shown. Like-named read-outs stand apart in the source and are kept apart here. Non-standard residues stand in square brackets, D forms with d. Residues, ends and D or L forms follow the SMILES beside them. Nle = CCCC[C@H](N)C(=O)O
Legend:
ANTS/DPX leakage assay = settings: 100% = 0.1% Triton
Description: The ability of the peptide [Nle^1, DLeu^9, DLys^10]TL to induce LUVs leakage was evaluated using ANTS/DPX assay. After the preparation of lipid films (0.1 mM) as described above, fluorophores ANTS (12.5 mM) and DPX (45 mM) were dissolved in water and added to lipid films. The mixture was frozen and lyophilized overnight. Then, the lipid films with ANTS and DPX were hydrated with PBS 1× buffer, vortexed for 1 h and then treated to obtain LUVs. The nonencapsulated ANTS and DPX were removed by gel filtration using a Sephadex G-50 column (1.5 cm × 10 cm) at room temperature. The leakage experiment was performed titrating LUVs with different peptide concentrations of 5, 10, 15, 20, 30, 50 μM, and each sample was excited at 385 nm (slit width, 5 nm) and the fluorescence emission was recorded at 512 nm (slit width, 5 nm). The liposomes leakage promoted by peptide was correlated with an increase of ANTS fluorescence at 512 nm. In this experiment, the control was represented by the complete release of ANTS after the treatment of LUVs with 0.1% Triton. The liposomes leakage was calculated as % Leakage = (Fi − F0)/(Ft − F0), where F0 is the fluorescence of intact LUVs before the addition of peptide, and Fi and Ft is the intensities of the fluorescence achieved after peptide and Triton-X treatment, respectively.

P. aeruginosa ATCC 27853 = type: cell-based
Description: (§1) All Gram-negative and Gram-positive strains were obtained from the American Type Culture Collection (Rockville, MD, USA). MICs were determined as described previously. 50 μL of bacterial culture properly diluted in Mueller–Hinton (MH) broth were added to each well of a 96-well plate containing 50 μL of MH with serially two-fold diluted peptide from 100 μM, to reach a final cell density of 1 × 10^6 CFU/mL. Each MIC value indicates the lowest concentration of compound that causes a total inhibition of bacterial growth after 16–18 h of incubation at 37 °C.

E. coli ATCC 25922 = type: cell-based
Description: as §1

[1] = test system: S. epidermidis ATCC 12228; type: cell-based
Description: as §1

B. megaterium Bm11 = type: cell-based
Description: as §1

S. aureus ATCC 25923 = type: cell-based
Description: as §1

A. baumannii ATCC 19606 = type: cell-based
Description: as §1

[2] = test system: K. pneumoniae ATCC BAA-1705; type: cell-based
Description: as §1

[3] = test system: J774A.1 murine macrophage cells; settings: MTT, 3 independent experiments
Description: The spectrophotometric absorbance was then measured using a microtiter enzyme-linked immunosorbent assay reader (Multiskan™ GO Microplate Spectrophotometer; Thermo Scientific™, Milan, Italy) at 540 nm. The percentage of cell viability was assessed by the following formula: (OD of treated cells/OD of control) × 100.

[4] = Peptide aggregation in aqueous solution, Nile Red; type: physicochemical; settings: Nile Red 500 nM, 1–200 μM peptide, 1 h equilibration at room temperature, fluorescence, triplicate, Boltzmann fit
Description: Nile Red (NR) was used as fluorescent probe to monitor the aggregation in solution [51]. NR is not very soluble in water and has a large preference to move into hydrophobic environment as aggregates, producing a blue shift and hyperchromic effect. The peptide stock (400 μM) was prepared in 1,1,1,3,3,3-hexafluoro-2-propanol (HFIP) as solvent and different aliquots were taken to prepare each peptide solution at different concentrations (1, 5, 10, 15, 20, 30, 50, 100, and 200 μM). Then, HFIP was removed under nitrogen stream, 1 mL of water was added, and the solution was sonicated for 15 min and freeze-dried. Finally, the peptide powders were dissolved with a solution of 500 nM of NR in water and equilibrated for 1 h at room temperature. Emission spectra for each solution were measured between 570 and 700 nm by a Cary Eclipse Varian spectrometer (San Diego, CA, USA), setting a slit width of 5 nm and an excitation wavelength of 550 nm and a 10 nm slit width. The measurements were performed in triplicate. The data were analyzed by plotting the maximum emission fluorescence corresponding wavelength (y) as a function of peptide concentration (x) and fitting with the sigmoidal Boltzmann equation as described previously.

sheep red blood cells = test: Hemolytic assay; type: cell-based
Description: Hemolysis was evaluated on sheep red blood cells (OXOID, SR0051D, Milan, Italy). Aliquots of cells in 0.9% (w/v) NaCl were incubated with the peptide [Nle^1, DLeu^9, DLys^10]TL at different concentrations (ranging from 3.12 to 100 μM) for 40 min at 37 °C with gentle shaking. Controls were erythrocytes treated with vehicle while total lysis controls were obtained by suspending cell in distilled water. Then, the samples were centrifuged for 5 min at 900× g, and the presence of hemoglobin in the supernatant was measured at an absorbance of 415 nm using a microplate reader (Infinite M200; Tecan, Salzburg, Austria) and compared to the complete lysis of erythrocytes (100%). The data reported are the mean ± the standard error of the mean (S.E.M.) of three independent experiments.

[5] = Circular dichroism in vesicles; type: physicochemical; settings: vesicles of DOPG/CL and DOPG/DOPE/CL, peptide 3 μM, phosphate buffer 5 mM pH 7.4, 25 °C; negative band at ~220 nm
Description: All CD spectra were recorded from 260 to 190 nm (a bandwidth of 3 nm, a time constant of 16 s, and a scan rate of 10 nm/min) on a Jasco J-175 spectropolarimeter using a 1 cm quartz cell at 25 °C. Small unilamellar vesicles (SUVs) made of DOPG/CL (58/42 ratio in moles) and DOPG/DOPE/CL (63/23/12 ratio in moles) were used in the conformational study. SUVs were prepared as reported previously. Firstly, lipids dissolved in chloroform and an equal volume of peptide solution dissolved in 2,2,2-trifluoroethanol (TFE) containing the peptide [Nle^1, DLeu^9, DLys^10]TL at a concentration of 3 μM were mixed, vortexed, and lyophilized overnight. Then, the dry samples were hydrated with phosphate buffer 5 mM, pH 7.4, for 1 h and sonicated for 30 min to obtain SUVs. Each spectrum was corrected for the blank and converted into mean molar ellipticity.

In the case of `CCCC[C@H](N)C(=O)N[C@@H](Cc1ccccc1)C(=O)N[C@H](C(=O)N1CCC[C@H]1C(=O)N[C@@H](Cc1c[nH]c2ccccc12)C(=O)N[C@@H](Cc1ccccc1)C(=O)N[C@@H](CO)C(=O)N[C@@H](CCCCN)C(=O)N[C@@H](Cc1ccccc1)C(=O)N[C@H](CC(C)C)C(=O)N[C@H](CCCCN)C(=O)N[C@@H](CCCNC(=N)N)C(=O)N[C@H](C(=O)N[C@@H](CC(C)C)C(N)=O)[C@@H](C)CC)C(C)C` [[Nle^1, DLeu^9, DLys^10]TL] (H-[Nle]FVPWFSKF[dL][dK]RIL-NH2), the LUVs leakage (ANTS/DPX leakage assay; 10 μM peptide, LUVs DOPG/CL) was ~ 60%, the LUVs leakage (ANTS/DPX leakage assay; highest concentration of 50 μM, LUVs DOPG/DOPE/CL) was ~ 20% and the MIC (P. aeruginosa ATCC 27853) was 12.5 µM (≈ 22.4 µg/mL). For the same molecule, the MIC (E. coli ATCC 25922) was 6.25 µM (≈ 11.2 µg/mL), the MIC [1] was 3.12 µM (≈ 5.6 µg/mL) and the MIC (B. megaterium Bm11) was 0.78 µM (≈ 1.4 µg/mL). For the same molecule, the MIC (S. aureus ATCC 25923) was 3.12 µM (≈ 5.6 µg/mL), the MIC (A. baumannii ATCC 19606) was 3.12 µM (≈ 5.6 µg/mL) and the MIC [2] was 12.5 µM (≈ 22.4 µg/mL). For the same molecule, the “cytotoxic effect on murine macrophage cell line” value ([3]; J774A.1, 1–3 μM) was “safe profile”, the “cytotoxic effect on murine macrophage cell line” value ([3]; J774A.1, 10 and 30 μM) was “significant reduction of cell viability” and the “critical aggregation concentration (CAC)” value [4] was 38.9 µM. For the same molecule, the hemolysis (sheep red blood cells; 50 µM) was ~ 40%, the hemolysis (sheep red blood cells; 100 µM) was ~ 40% and the “molecular conformation (CD)” value [5] was “β-type conformation”.
